Calls of active or inactive are those of the source. The rule behind the calls is not given here.
Tests used:
[1] = tested on: MDA-MB-231; assay: Reduction in FOXM1 expression in mouse xenografted with human MDA-MB-231 cells at 10 mg/kg/day administered through tail vain for 12 consecutive days by Western blot analysis; assay type: functional, organism-based; conditions: route iv
[2] = tested on: MDA-MB-231; assay: Anti-invasive activity against human MDA-MB-231 cells assessed as decrease in Vimentin gene expression incubated for 16 hrs by qRT-PCR analysis; assay type: functional, cell-based; conditions: dose 10-20 µM
[3] = tested on: MDA-MB-231; assay: Induction of cell cycle arrest in human MDA-MB-231 cells assessed as accumulation at G0/G1 phase at 20 uM incubated for 16 hrs by flow cytometry assay (reference value: 65.49%); assay type: functional
[4] = tested on: MDA-MB-231; assay: Antiproliferative activity against human MDA-MB-231 cells assessed as growth inhibition by MTT assay; assay type: functional
[5] = Stability in human plasma assessed as half life by LC/MS analysis; assay type: ADME, cell-free
[6] = tested on: MDA-MB-231; assay: Anti-invasive activity against human MDA-MB-231 cells assessed as reduction migration incubated by transwell assay; assay type: functional, cell-based; conditions: dose 10-20 µM
[7] = tested on: MDA-MB-231; assay: Anti-invasive activity against human MDA-MB-231 cells assessed as reduction invasion incubated by transwell assay; assay type: functional, cell-based; conditions: dose 10-20 µM
[8] = tested on: MDA-MB-231; assay: Downregulation of CDC25B expression in human MDA-MB-231 cells at 20 uM incubated for 16 hrs by Western blot analysis; assay type: functional, cell-based
[9] = tested on: MDA-MB-231; assay: Antitumor activity against human MDA-MB-231 cells xenografted in mouse assessed as tumor shrinkage at 10 mg/kg/day administered through tail vain for 12 consecutive days by H and E staining based histological analysis; assay type: functional, organism-based; conditions: route iv
[10] = tested on: MDA-MB-231; assay: Antitumor activity against human MDA-MB-231 cells xenografted in mouse assessed as […] by measuring Ki67 labelling at 10 mg/kg/day administered through tail vain for 12 consecutive days by immunohistochemical analysis; assay type: functional, organism-based; conditions: route iv
[11] = tested on: MDA-MB-231; assay: Induction of cell cycle arrest in human MDA-MB-231 cells assessed as accumulation at S phase at 20 uM incubated for 16 hrs by flow cytometry assay (reference value: 22.19%); assay type: functional
[12] = Stability in rat plasma assessed as half life by LC/MS analysis; assay type: ADME, cell-free
[13] = tested on: MDA-MB-231; assay: Anti-invasive activity against human MDA-MB-231 cells assessed as decrease in MMP2 gene expression incubated for 16 hrs by qRT-PCR analysis; assay type: functional, cell-based; conditions: dose 10-20 µM
[14] = tested on: MDA-MB-231; assay: Downregulation of Cyclin B expression in human MDA-MB-231 cells at 20 uM incubated for 16 hrs by Western blot analysis; assay type: functional, cell-based
[15] = tested on: MDA-MB-231; assay: Reduction in beta-catenin nuclear accumulation in human MDA-MB-231 cells at 20 uM incubated for 16 hrs by Western blot analysis; assay type: functional, cell-based
[16] = tested on: MDA-MB-231; assay: Anti-invasive activity against human MDA-MB-231 cells assessed as decrease in Snail gene expression incubated for 16 hrs by qRT-PCR analysis; assay type: functional, cell-based; conditions: dose 10-20 µM
[17] = tested on: MDA-MB-231; assay: Anti-invasive activity against human MDA-MB-231 cells assessed as increase in E-cadherin mRNA expression incubated for 16 hrs by qRT-PCR analysis; assay type: functional, cell-based; conditions: dose 10-20 µM
[18] = tested on: MCF-10A; assay: Cytotoxicity against human MCF-10A cells assessed as cell viability measured upto 30 uM; assay type: cell-based
[19] = tested on: MDA-MB-231; assay: In vivo antitumor activity against human MDA-MB-231 cells xenografted in mouse assessed as tumor growth inhibition at 10 mg/kg/day administered through tail vain for 12 consecutive days; assay type: functional; conditions: route iv, read-out: TGI
[20] = tested on: MCF7; assay: Antiproliferative activity against human MCF7 cells assessed as cell viability measured at 10 uM; assay type: functional, cell-based
[21] = Stability in mouse plasma assessed as half life by LC/MS analysis; assay type: ADME, cell-free
[22] = tested on: Mus musculus; assay: Toxicity in mouse xenografted with human MDA-MB-231 cells assessed as change in body weight at 10 mg/kg/day administered through tail vain for 12 consecutive days; assay type: organism-based; conditions: in vivo, iv
[23] = tested on: MDA-MB-231; assay: Induction of cell cycle arrest in human MDA-MB-231 cells assessed as accumulation at G2/M phase at 20 uM incubated for 16 hrs by flow cytometry assay (reference value: 12.30%); assay type: functional
[24] = tested on: MDA-MB-231; assay: Antineoplastic effect in human MDA-MB-231 cells xenografted in mouse assessed as reduction in tumor volume at 10 mg/kg/day administered through tail vain for 12 consecutive days; assay type: functional, organism-based; conditions: route iv
[25] = tested on: MDA-MB-231; assay: Anti-invasive activity against human MDA-MB-231 cells assessed as decrease in Slug gene expression incubated for 16 hrs by qRT-PCR analysis; assay type: functional, cell-based; conditions: dose 10-20 µM
[26] = molecular target: T1, Forkhead box protein M1 (Homo sapiens, UniProt Q08050); assay: Inhibition of recombinant FOXM1-DBD (unknown origin) binding to DNA measured after 30 mins by biochemical EMSA assay
T1 sequence (Q08050 whole entry): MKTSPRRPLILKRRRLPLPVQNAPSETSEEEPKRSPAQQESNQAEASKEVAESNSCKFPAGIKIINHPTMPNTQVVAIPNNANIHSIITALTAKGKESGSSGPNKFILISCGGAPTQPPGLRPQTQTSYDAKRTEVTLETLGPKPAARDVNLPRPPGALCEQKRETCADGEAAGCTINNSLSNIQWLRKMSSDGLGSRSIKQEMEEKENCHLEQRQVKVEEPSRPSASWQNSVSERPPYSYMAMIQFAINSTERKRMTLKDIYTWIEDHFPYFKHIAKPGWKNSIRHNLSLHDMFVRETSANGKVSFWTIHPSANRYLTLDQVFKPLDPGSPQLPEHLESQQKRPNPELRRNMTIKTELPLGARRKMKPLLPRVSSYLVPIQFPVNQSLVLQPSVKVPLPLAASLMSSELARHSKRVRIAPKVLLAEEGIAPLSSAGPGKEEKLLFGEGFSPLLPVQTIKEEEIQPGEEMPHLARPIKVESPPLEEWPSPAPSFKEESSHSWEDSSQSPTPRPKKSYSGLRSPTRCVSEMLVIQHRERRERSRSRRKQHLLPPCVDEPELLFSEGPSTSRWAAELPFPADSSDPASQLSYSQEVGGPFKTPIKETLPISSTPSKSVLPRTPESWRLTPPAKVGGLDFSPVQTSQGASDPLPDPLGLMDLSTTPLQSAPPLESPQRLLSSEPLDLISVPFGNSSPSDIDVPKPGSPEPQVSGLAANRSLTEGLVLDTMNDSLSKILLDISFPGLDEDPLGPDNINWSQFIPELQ

With `Nc1c(C(=O)Nc2ccc(F)cc2)sc2nc(-c3ccc(OCC(=O)NCCCOCCOCCOCCCNC(=O)COc4cccc5c4C(=O)N(C4CCC(=O)NC4=O)C5=O)cc3)cc(C(F)(F)F)c12` (centres undefined) the Activity [1] was “Active”, the Activity [2] was “Dose-dependent effect” and the Activity [3] was 57.92%. The GI50 [4] was 16.2 µM, the half-life [5] was 1.74 h and the Activity [6] was “Dose-dependent effect”. For the same compound, the Activity [7] was “Dose-dependent effect”, the Activity [8] was “Active” and the Activity [9] was “Active”. The Activity [10] was “Active”, the Activity [11] was 21.75% and the half-life [12] was 0.588 h. For the same compound, the Activity [13] was “Dose-dependent effect”, the Activity [14] was “Active” and the Activity [15] was “Active”. For the same compound, the Activity [16] was “Dose-dependent effect”, the Activity [17] was “Dose-dependent effect” and the Activity [18] was “Non-Toxic”. For the same compound, the inhibition in vivo at 10 mg/kg/day [19] was 78.2%, the Activity [20] was “Active” and the half-life [21] was greater than 2 h. For the same compound, the Activity [22] was “Non-Toxic”, the Activity [23] was 20% and the Activity [24] was “Active”. For the same compound, the Activity [25] was “Dose-dependent effect”.
In the case of `CN1C(=O)CCC(N2C(=O)c3cccc(OCC(=O)NCCCOCCOCCOCCCNC(=O)COc4ccc(-c5cc(C(F)(F)F)c6c(N)c(C(=O)Nc7ccc(F)cc7)sc6n5)cc4)c3C2=O)C1=O` (centres undefined), the Activity [3] is reported as 57.44%, the Activity [8] is reported as “inactive” and the Activity [11] is reported as 24.35%. For the same compound, the Activity [14] was “inactive”, the Activity [15] was “inactive” and the Activity [23] was 18.2%.
In the case of `Nc1c(C(=O)Nc2ccc(F)cc2)sc2nc(-c3ccc(OCC(=O)NCCOCCOCCNc4cccc5c4C(=O)N(C4CCC(=O)NC4=O)C5=O)cc3)cc(C(F)(F)F)c12` (centres undefined), the GI50 [4] is reported as greater than 50 µM.
`Nc1c(C(=O)Nc2ccc(F)cc2)sc2nc(-c3ccc(OCC(=O)NCCCCCCCCNc4cccc5c4C(=O)N(C4CCC(=O)NC4=O)C5=O)cc3)cc(C(F)(F)F)c12` (centres undefined) showed a GI50 [4] greater than 50 µM.
For `Nc1c(C(=O)Nc2ccc(F)cc2)sc2nc(-c3ccc(OCC(=O)NCCCOCCOCCOCCCNc4cccc5c4C(=O)N(C4CCC(=O)NC4=O)C5=O)cc3)cc(C(F)(F)F)c12` (centres undefined), the GI50 [4] was greater than 50 µM.
Compound `Nc1c(C(=O)Nc2ccc(F)cc2)sc2nc(-c3ccc(OCC(=O)NCCCCCCCCNC(=O)COc4cccc5c4C(=O)N(C4CCC(=O)NC4=O)C5=O)cc3)cc(C(F)(F)F)c12` (centres undefined) has a GI50 [4] of 38.6 µM.
With `Nc1c(C(=O)Nc2ccc(F)cc2)sc2nc(-c3ccc(OCC(=O)NCCCNC(=O)COc4cccc5c4C(=O)N(C4CCC(=O)NC4=O)C5=O)cc3)cc(C(F)(F)F)c12` (centres undefined) the GI50 [4] was 17.4 µM.
With `COc1ccc(-c2cc(C(F)(F)F)c3c(N)c(C(=O)Nc4ccc(F)cc4)sc3n2)cc1` the GI50 [4] was 27.3 µM.
Work on `Nc1c(C(=O)Nc2ccc(F)cc2)sc2nc(-c3ccc(OCC(=O)NCCCNc4cccc5c4C(=O)N(C4CCC(=O)NC4=O)C5=O)cc3)cc(C(F)(F)F)c12` (centres undefined) yielded a GI50 [4] of 45.4 µM.
In the case of `Nc1c(C(=O)Nc2ccc(F)cc2)sc2nc(-c3cccs3)cc(C(F)(F)F)c12`, the Activity [1] is reported as “Active”, the Activity [3] is reported as 57.52% and the GI50 [4] is reported as 25.6 µM. For the same compound, the Activity [9] was “Active”, the Activity [10] was “Active” and the Activity [11] was 16.17%. The Activity [15] was “inactive”, the inhibition in vivo at 10 mg/kg/day [19] was 47.8% and the IC50 [26] was 28.4 µM. For the same compound, the Activity [23] was 16.32%.
`Nc1c(C(=O)Nc2ccc(F)cc2)sc2nc(-c3ccc(OCC(=O)NCCOCCOCCNC(=O)COc4cccc5c4C(=O)N(C4CCC(=O)NC4=O)C5=O)cc3)cc(C(F)(F)F)c12` (centres undefined) gave a GI50 [4] of 19.5 µM.

From ChEMBL document CHEMBL5053547, “Targeting of the FOXM1 Oncoprotein by E3 Ligase-Assisted Degradation” (J Med Chem, 2021)
